This is an account of results in patent US10718761B2, “Phosphatase or kinase activity detection composition and detection method” (INDUSTRY-UNIVERSITY COOPERATION FOUNDATION HANYANG …, priority 2014, dated 2020).

The test system of this assay is TAMRA-PEPPKA(p). Description: Zn(II)-mediated QD-FRET between QD525 and TAMRA-labelled phosphopeptide. Format: binding. To be noted: QD 2 nM. Here is the method: A synthetic peptide substrate labeled with 5(6)-carboxytetramethylrhodamine at the N-terminus (TAMRA-LRRASLG; TAMRA-PEPPKA) was compared with its phosphorylated form (TAMRA-LRRApSLG; TAMRA-PEPPKA(p)) (FIG. 12B). The FRET ratio was determined by the acceptor (FA) emission area (integrated from 550 to 650 nm) relative to the donor (FD) emission area (integrated from 450 to 550 nm). The concentrations of QD, TAMRA-PEPPKA(p) (or TAMRA-PEPPKA), and ZnCl2 were 2 nM, 80 nM and 100 μM, respectively. The QD-FRET spectra were obtained at an excitation wavelength of 380 nm.
The change in FRET between QD and TAMRA-PEPPKA(p) according to a function of Zn^2+ concentration was calculated. Furthermore, the relative FRET percentage was calculated by dividing the experimental FRET ratio by the maximal FRET ratio (0.74). The concentrations of QD and TAMRA-PEPPKA(p) were 2 nM and 80 nM, respectively. Excitation/emission wavelengths of QD-FRET (FIG. 12C (i)), QD (FIG. 12C (ii)), and TAMRA-PEPPKA(p) (FIG. 12C (iii)) were obtained at 380/580, 380/525, 530/580 nm, respectively.

By Kd is commonly meant the concentration at which binding is half-saturated. Regarding `[Cl-].[Cl-].[Zn+2]` [Zn(II), ZnCl2], the “FRET ratio (FA/FD)” value (TAMRA-PEPPKA(p) 80 nM, ZnCl2 100 μM, excitation 380 nm) worked out at 0.65. The Kd (free Zn(II) ions, TAMRA-PEPPKA(p) 80 nM (1:40 molar ratio), read-out: binding affinity Kd for TAMRA-PEPPKA(p), based on the FRET efficiency) was 8.8 µM.
